According to patent US20210244057A1, “SWEETENER POWDER COMPOSITION AND PREPARATION METHOD THEREFOR” (SAMYANG CORPORATION, priority 2018, published 2021):

What was measured:
[1] = Sensory evaluation of sweetener powder by 15 panelists; type: in vivo; conditions: score on a scale of 5 points, 10% Brix solution
Description: For the sensory evaluation, the powders prepared in Examples 5 and 6 were used as an experimental group, and sugar was used as a control group. Each sample was dissolved to a concentration of 10% Brix and prepared to become the same temperature. 10 ml of each sample was collected and provided. It was expressed as a three-digit number randomly extracted using a random number table. The sample presentation order was always randomly determined, and a lukewarm water that could rinse the mouth was provided together to inspectors. The sensory laboratory was maintained at a constant temperature (25±1° C.) and no odor.
The sensory inspectors selected 15 panelists who have a high level of understanding of sensory tests and have experience in sensory tests. Training was conducted three times a week for one month, and it took an average of 30 minutes for each training session. As for the content and method of evaluation, the score was evaluated on a scale of 5 points for the intensity of sweet taste, persistence of sweet taste, body taste, and bitter taste of the control group and the experimental group. The criteria of sweet taste intensity was compared with the standard sample sugar 10% solution as 4.5 points. The closer to 1 point, the lighter the body taste, and the closer to 5 points, the heavier the taste was.

[2] = Glass transition temperature (Tg) by differential scanning calorimetry (DSC), ASTM D3418; type: physicochemical; conditions: raw material: crystalline allulose in powder state
Description: In order to measure the glass transition temperature value (Tg) of the powder product obtained in Examples 1 to 4, and Example 6, differential scanning calorimetry (DSC) analysis was performed according to the method of ASTM D3418, and the specific DSC analysis conditions are as follows.
Equipment name: DSC[differential scanning calorimetry]
Manufacturer: Perkin Elmer
Method: 30 to 250° C., 10° C./min temperature rise, N2 gas purge
The liquid product of Comparative Example 1 was not spray-dried, and measured by the glass transition temperature of the powder obtained by freeze-drying the liquid product. Allulose was measured by the glass transition temperature of crystalline allulose, Reference Example 2 was measured by the glass transition temperature of commercially available indigestible maltodextrin (Samyang Corporation, indigestible maltodextrin, DE 14.9, dietary fiber content 85%), and Reference Example 3 and Reference Example 4 were measured by pulverizing commercially available maltodextrin (Samyang Corporation., Genedex) and commercially available starch syrup (Samyang Corporation, low-intensity starch syrup) at the glass transition temperature.

| Tg [2] | SMILES | Body taste ([1]; 1 = lighter, 5 = heavier) | Bitter residual taste [1] | Sweet taste persistence [1] | Sweet taste ([1]; sugar 10% solution standard = 4.5 points) |
| --- | --- | --- | --- | --- | --- |
|  | OC[C@H]1O[C@@](CO)(O[C@H]2O[C@H](CO)[C@@H](O)[C@H](O)[C@H]2O)[C@@H](O)[C@@H]1O [Control group, sugar] | 3.3 | 2.2 | 3.2 | 4.3 |
| −5.5 °C | O=C(CO)C(O)C(O)C(O)CO (centres unmarked) [Crystalline allulose, allulose] |  |  |  |  |
